Reference: the supplement of paper PMC6045584
± gives the standard deviation of the averaged measurements.

Legend:
AFIMOXIFENE = compound: CC/C(=C(\c1ccc(O)cc1)c1ccc(OCCN(C)C)cc1)c1ccccc1 [AFIMOXIFENE]; test: surviving fraction relative to DMSO-only wells; higher = less growth inhibition; settings: exposure time: 5 days
How it was run: (§1)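 Log-phase tumour cells were seeded at 250–500 per well in 384-well plates and, from 24 hours after seeding, exposed continuously for five days to inhibitors at 0.5, 1, 5, 10, 50, 100, 500 and 1000 nM. Surviving fraction is CellTiter-Glo luminescence normalised to the median of DMSO-only wells. Luminescence was measured after 10 minutes at room temperature, and only lines screened three times with replicate Pearson r >0.7 and median Z' >0.3 were kept.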

BLEOMYCIN = compound: Cc1c(N)nc([C@H](CC(N)=O)NC[C@H](N)C(N)=O)nc1C(=O)N[C@H](C(=O)N[C@H](C)[C@@H](O)[C@H](C)C(=O)N[C@H](C(=O)NCCc1nc(-c2nc(C(=O)NCCC[S+](C)C)cs2)cs1)[C@@H](C)O)[C@@H](OC1OC(CO)C(O)C(O)C1OC1OC(CO)C(O)C(OC(N)=O)C1O)c1cnc[nH]1 [BLEOMYCIN]; test: as above; settings: exposure time: 5 days
How it was run: as §1

Test System | surviving fraction (AFIMOXIFENE; 0.5 nM) | surviving fraction (AFIMOXIFENE; 1 nM) | surviving fraction (AFIMOXIFENE; 5 nM) | surviving fraction (AFIMOXIFENE; 10 nM) | surviving fraction (AFIMOXIFENE; 50 nM) | surviving fraction (AFIMOXIFENE; 100 nM) | surviving fraction (AFIMOXIFENE; 500 nM) | surviving fraction (AFIMOXIFENE; 1000 nM) | surviving fraction (BLEOMYCIN; 0.5 nM) | surviving fraction (BLEOMYCIN; 1 nM) | surviving fraction (BLEOMYCIN; 5 nM) | surviving fraction (BLEOMYCIN; 10 nM) | surviving fraction (BLEOMYCIN; 50 nM) | surviving fraction (BLEOMYCIN; 100 nM) | surviving fraction (BLEOMYCIN; 500 nM) | surviving fraction (BLEOMYCIN; 1000 nM)
S68 BREAST | 0.947 ± 0.19 | 0.829 ± 0.24 | 1.08 ± 0.052 | 0.952 ± 0.18 | 1.39 ± 0.13 | 1.21 ± 0.11 | 0.916 ± 0.047 | 0.805 ± 0.065 | 0.907 ± 0.057 | 0.858 ± 0.22 | 1.04 ± 0.15 | 0.847 ± 0.44 | 1.14 ± 0.15 | 0.911 ± 0.1 | 0.56 ± 0.076 | 0.369 ± 0.083
HCC78 LUNG | 0.893 ± 0.16 | 0.908 ± 0.17 | 0.902 ± 0.39 | 1.05 ± 0.19 | – | 1.13 ± 0.077 | 1.29 ± 0.2 | 1.08 ± 0.094 | 0.839 ± 0.12 | 0.932 ± 0.32 | 0.892 ± 0.2 | 0.774 ± 0.39 | 0.376 ± 0.14 | 0.499 ± 0.13 | 0.202 ± 0.075 | 0.0983 ± 0.032
CASKI CERVIX | 0.882 ± 0.064 | 0.93 ± 0.023 | 0.989 ± 0.046 | 0.977 ± 0.03 | 1.1 ± 0.071 | 1.05 ± 0.017 | 1.01 ± 0.043 | 0.9003 ± 0.0032 | 0.763 ± 0.063 | 0.767 ± 0.057 | 0.7 ± 0.051 | 0.636 ± 0.088 | 0.691 ± 0.023 | 0.612 ± 0.051 | 0.229 ± 0.018 | 0.141 ± 0.0035
CADOES1 SOFT TISSUE | 1.04 ± 0.054 | 0.998 ± 0.092 | 0.842 ± 0.12 | 0.986 ± 0.066 | 1.07 ± 0.064 | 0.978 ± 0.067 | 1.14 ± 0.042 | 0.967 ± 0.087 | 0.943 ± 0.079 | 0.967 ± 0.089 | 0.789 ± 0.12 | 0.776 ± 0.067 | 0.683 ± 0.051 | 0.503 ± 0.14 | 0.285 ± 0.019 | 0.116 ± 0.017
LNCAP PROSTATE | 1.08 ± 0.041 | 0.942 ± 0.1 | 1.04 ± 0.063 | 1 ± 0.098 | 1.06 ± 0.061 | 1.04 ± 0.087 | 1.02 ± 0.08 | 0.983 ± 0.088 | 1.18 ± 0.11 | 1.04 ± 0.038 | 1.14 ± 0.085 | 0.96 ± 0.15 | 1.03 ± 0.061 | 0.868 ± 0.076 | 0.847 ± 0.074 | 0.595 ± 0.072
HCC1806 BREAST | 1.04 ± 0.065 | 1.1 ± 0.077 | 1.16 ± 0.12 | 1.14 ± 0.048 | 1.15 ± 0.026 | 1.13 ± 0.072 | 0.965 ± 0.028 | 0.682 ± 0.064 | 0.771 ± 0.058 | 0.824 ± 0.1 | 0.682 ± 0.035 | 0.56 ± 0.0059 | 0.397 ± 0.0062 | 0.2757 ± 0.0015 | 0.108 ± 0.0021 | 0.0743 ± 0.0095
MDAMB468 BREAST | 1.01 ± 0.021 | 0.991 ± 0.034 | 1.06 ± 0.054 | 1.09 ± 0.02 | 1.12 ± 0.077 | 1.21 ± 0.046 | 1.14 ± 0.024 | 1.05 ± 0.0095 | 0.804 ± 0.036 | 0.863 ± 0.058 | 0.912 ± 0.044 | 0.932 ± 0.039 | 1.09 ± 0.027 | 0.989 ± 0.049 | 0.768 ± 0.035 | 0.577 ± 0.026
JURKAT HAEMATOPOIETIC AND LYMPHOID TISSUE | 1.06 ± 0.023 | 1.03 ± 0.026 | 1.03 ± 0.021 | 1.04 ± 0.015 | 0.953 ± 0.024 | 0.935 ± 0.061 | 0.991 ± 0.011 | 1.03 ± 0.025 | 1.01 ± 0.02 | 1.02 ± 0.016 | 0.986 ± 0.016 | 0.977 ± 0.012 | 0.916 ± 0.017 | 0.786 ± 0.026 | 0.232 ± 0.0061 | 0.122 ± 0.0062
KPD BONE | 1.03 ± 0.043 | 1.03 ± 0.022 | 1.14 ± 0.088 | 1.07 ± 0.043 | 1.132 ± 0.011 | 1.1 ± 0.04 | 0.976 ± 0.049 | 0.83 ± 0.035 | 0.862 ± 0.01 | 0.828 ± 0.062 | 0.875 ± 0.021 | 0.891 ± 0.034 | 0.767 ± 0.018 | 0.699 ± 0.018 | 0.495 ± 0.04 | 0.407 ± 0.014
MHM BONE | 1.02 ± 0.021 | 1.03 ± 0.05 | 1.09 ± 0.049 | 1.07 ± 0.033 | 1.06 ± 0.025 | 1.06 ± 0.027 | 1.01 ± 0.022 | 1.02 ± 0.028 | 0.966 ± 0.034 | 0.975 ± 0.015 | 1.01 ± 0.03 | 0.985 ± 0.019 | 0.999 ± 0.014 | 0.921 ± 0.016 | 0.718 ± 0.013 | 0.665 ± 0.0046
A549 LUNG | 1.07 ± 0.021 | 1.065 ± 0.0068 | 1.06 ± 0.022 | 1.08 ± 0.013 | 1.05 ± 0.023 | 1.1 ± 0.03 | 1.09 ± 0.022 | 1.11 ± 0.032 | 0.932 ± 0.023 | 0.94 ± 0.032 | 0.956 ± 0.023 | 0.915 ± 0.046 | 1 ± 0.042 | 1.01 ± 0.018 | 0.825 ± 0.019 | 0.593 ± 0.032
SUM44 BREAST | 1.17 ± 0.34 | 1.22 ± 0.34 | 1.2 ± 0.26 | 1.2 ± 0.39 | 1.3 ± 0.43 | 1.19 ± 0.36 | 1.13 ± 0.29 | 1.08 ± 0.32 | 0.917 ± 0.045 | 0.918 ± 0.013 | 0.92 ± 0.058 | 0.93 ± 0.025 | 1.06 ± 0.037 | 0.973 ± 0.088 | 0.853 ± 0.059 | 0.824 ± 0.023
COLO320DM LARGE INTESTINE | 1.14 ± 0.071 | 1.05 ± 0.08 | 1.05 ± 0.011 | 1.11 ± 0.045 | 1.17 ± 0.079 | 1.18 ± 0.056 | 1.16 ± 0.05 | 1.13 ± 0.018 | 1.09 ± 0.042 | 0.972 ± 0.025 | 1.03 ± 0.058 | 1.04 ± 0.099 | 1.15 ± 0.22 | 0.89 ± 0.052 | 0.868 ± 0.057 | 0.675 ± 0.024
HU09 BONE | 1 ± 0.069 | 0.969 ± 0.057 | 1.02 ± 0.077 | 1.21 ± 0.1 | 1.13 ± 0.08 | 1.04 ± 0.065 | 0.971 ± 0.083 | 0.945 ± 0.038 | 0.805 ± 0.015 | 0.923 ± 0.031 | 0.9 ± 0.084 | 0.831 ± 0.058 | 0.883 ± 0.083 | 0.761 ± 0.037 | 0.381 ± 0.013 | 0.246 ± 0.028
SUM149 BREAST | 1.12 ± 0.094 | 1.02 ± 0.1 | 1.03 ± 0.078 | 1.03 ± 0.14 | 0.861 ± 0.031 | 0.911 ± 0.076 | 1.01 ± 0.11 | 0.868 ± 0.032 | 0.779 ± 0.092 | 0.889 ± 0.09 | 0.707 ± 0.034 | 0.451 ± 0.08 | 0.273 ± 0.029 | 0.255 ± 0.069 | 0.106 ± 0.015 | 0.048 ± 0.013
VCAP PROSTATE | 0.993 ± 0.093 | 1.06 ± 0.1 | 1.07 ± 0.065 | 1.11 ± 0.098 | 1.12 ± 0.11 | 1.09 ± 0.019 | 1.07 ± 0.17 | 0.941 ± 0.075 | 0.905 ± 0.018 | 0.953 ± 0.077 | 1.07 ± 0.12 | 1.05 ± 0.12 | 1.07 ± 0.12 | 1.02 ± 0.078 | 0.84 ± 0.024 | 0.889 ± 0.081
SNU475 LIVER | 1.06 ± 0.024 | 1.09 ± 0.055 | 1.03 ± 0.016 | 1.04 ± 0.057 | 1.01 ± 0.022 | 1.07 ± 0.034 | 1.01 ± 0.054 | 1.07 ± 0.062 | 0.8647 ± 0.0059 | 0.859 ± 0.0092 | 0.838 ± 0.014 | 0.844 ± 0.024 | 0.8043 ± 0.0023 | 0.752 ± 0.043 | 0.53 ± 0.025 | 0.384 ± 0.0084
DU4475 BREAST | 0.958 ± 0.1 | 0.963 ± 0.1 | 0.964 ± 0.053 | 0.903 ± 0.057 | 0.825 ± 0.017 | 0.717 ± 0.031 | 0.872 ± 0.17 | 0.651 ± 0.11 | 0.675 ± 0.13 | 0.792 ± 0.17 | 0.774 ± 0.2 | 0.77 ± 0.075 | 0.742 ± 0.13 | 0.62 ± 0.1 | 0.49 ± 0.11 | 0.378 ± 0.13
SG31 HEADNECK | 1.4 ± 0.15 | 1.21 ± 0.07 | 1.18 ± 0.16 | 1.06 ± 0.095 | 1.07 ± 0.15 | 1.09 ± 0.051 | 1.08 ± 0.099 | – | 0.979 ± 0.12 | 0.924 ± 0.018 | 0.767 ± 0.12 | 0.805 ± 0.12 | 0.83 ± 0.046 | 0.733 ± 0.066 | 0.712 ± 0.13 | 0.595 ± 0.065
SKBR3 BREAST | 1.16 ± 0.077 | 1.1 ± 0.16 | 1.16 ± 0.11 | 1.12 ± 0.16 | 1.17 ± 0.13 | 1.06 ± 0.19 | 1.16 ± 0.12 | 0.923 ± 0.12 | 0.886 ± 0.19 | 0.721 ± 0.1 | 0.81 ± 0.16 | 0.768 ± 0.15 | 0.872 ± 0.15 | 0.889 ± 0.099 | 0.87 ± 0.11 | 0.783 ± 0.13
